Measured values: publication PMC9695592, “Phenotypic Evaluation of Nucleoside Analogues against Trypanosoma cruzi Infection: In Vitro and In Vivo Approaches” (Molecules, 2022)
Where two headings read alike, the source gives them in different places.

Columns and labels:
L929 cells = assay: Toxicity on L929 cells (AlamarBlue); assay type: cell-based; settings: Mus musculus, L929, 168 h; seven days of compound incubation; 95% confidence interval in brackets
Description: (§1) L929 cell lines were used to evaluate the effect of the nucleoside derivatives on the cellular viability of mammalian host cells and to assess their activity against intracellular forms of T. cruzi (Tulahuen strain expressing E. coli β-galactosidase gene, DTU VI) as reported. 2D and 3D culture systems of rat cardiomyoblast cell lines (H9C2(2-1)) were used to evaluate cardiotoxicity and to test the derivatives’ activity on intracellular forms (Y strain, DTU II). In all assays, the cell cultures were maintained at 37 °C under an atmosphere of 5% CO2.
(§2) L929 cells seeded in sterile 96-well microtiter plates were exposed or not to increasing concentrations (up to 200 µM) of the compounds. After seven days of incubation, the cell growth of treated cultures was compared to untreated control cells (100% cell growth). Cellular viability was assessed through AlamarBlue® (resazurin sodium salt) colorimetric assay, and the results were expressed as % reduction in cell growth/viability compared to untreated control, and an IC50 value determined. For the assays using H9C2 cultures, 25 × 10^3 cells/well were seeded in a 96-well microtiter plates (flat and U bottoms, precoated with agarose 1% for preparing 2- and 3D matrices, respectively) and maintained at 37 °C [48, 54].

[1] = test system: bloodstream trypomastigotes of T. cruzi (Y strain); assay: Activity against bloodstream trypomastigotes, light microscopy counting; assay type: cell-based; settings: Trypanosoma cruzi, 24 h of compound incubation, 95% confidence interval in brackets; for EC50: read-out: Activity upon Bloodstream Forms EC50; for EC90: read-out: Activity upon Bloodstream Forms EC90
Procedure: (§3) Bloodstream trypomastigotes of the Y strain (DTU II) were obtained by cardiac puncture of infected Swiss Webster mice on the parasitemia peak to perform drug sensitivity assays. Trypomastigote forms of the Tulahuen-β gal strain were collected from the supernatant of previously infected L929 cell cultures (host/parasite cell ratio 10:1). The intracellular forms T. cruzi were studied by the infection of L929 and H9C2 (2D and 3D) cell cultures infected for 48 and 24 h with trypomastigotes of Tulahuen-β gal and Y strains, respectively. The Leishmania mexicana-Cas9 T7 strain (LmexCas9) was derived from L. mexicana WT promastigotes by expression of the Streptococcus pyogenes Cas9 nuclease gene ‘Cas9′ and maintained on 32 μg/mL hygromycin [51]. This strain and the derived strains Cas9^ΔNT1 and Cas9^ΔNT1+TcrNT2 were cultured in HOMEM medium supplemented with 10% of FBS and 1% Penicillin-Streptomycin antibiotic in unvented flasks at 25 °C [52]. The Cas9^ΔNT1 strain is identical to Cas9 except that the LmexNT1.1/NT1.2 locus encoding the L. mexicana adenosine/ pyrimidine transporters was excised using Cas9 [17, 40]. Cas9^ΔNT1+TcrNT2 is the further modification of that strain by the expression of the T. cruzi nucleoside transporter 2 (TcrNT2) gene in it, using the vector pNUS-HcN [53]. Appropriate antibiotics were added for the selection and maintenance of transfectants.
To analyze the compound activity against bloodstream trypomastigotes of T. cruzi (Y strain), […] of parasite were added in 96-well microtiter plates and incubated for 2 or for 24 h at 37 °C in RPMI culture medium in the presence or absence of each compound (up to 30 µM). The death rates were quantified by light microscopy using a Neubauer chamber to determine the EC50 [49, 58]. The data results from two independent experiments performed in duplicate were obtained.

H9C2 2D cultures = assay: Cardiotoxicity on H9C2 monolayers (2D), PrestoBlue; assay type: cell-based; settings: Rattus norvegicus
Description: as §1
as §2, with “After seven days of incubation, the cell growth of treated cultures was compared to untreated control cells (100% cell growth).” left out
[…] Cell viability was measured using the PrestoBlue® (PB) colorimetric assay, the results evaluated as % reduction in cell growth/viability compared to untreated control, and an IC50 value determined. The data results from at least two independent experiments done in at least duplicates.

H9C2 3D cultures = assay: Cardiotoxicity on H9C2 organoids (3D), PrestoBlue; assay type: cell-based, rat; settings: 95% confidence interval in brackets
Description: as §1, §2
The cardiac cultures were exposed or not to increasing concentrations of the nucleoside derivatives (up to 300 µM), and after seven days of incubation, their physiology and morphology was evaluated by light microscopy. Cell viability was measured using the PrestoBlue® (PB) colorimetric assay, the results evaluated as % reduction in cell growth/viability compared to untreated control, and an IC50 value determined. The data results from at least two independent experiments done in at least duplicates.

[2] = test system: promastigotes of LmexCas9; assay: Resazurin-based assay on LmexCas9 promastigotes; assay type: cell-based, Leishmania mexicana
Procedure: as §3
(§4) The EC50 values for nucleoside analogues against Leishmania mexicana promastigotes of the Cas9, Cas9^ΔNT1 and Cas9^ΔNT1+TcrNT2 strains used a resazurin-based assay, as described. Briefly, the assays were performed in standard HOMEM medium and culture conditions, in white opaque 96-well plates. For each test compound (stored as a 40 mM stock solution in 100% DMSO at −20 °C), a doubling dilution was performed over 2 rows of the plate, keeping the last well free as no-drug control with HOMEM only (23 doubling dilutions; highest concentration 100 µM). To each well, 100 µL of HOMEM containing 2 × 10^5 cells of the appropriate L. mexicana line was added, and the plates incubated for 72 h at 25 °C, followed by the addition of 20 µL of resazurin solution and further incubation for 48 h. Fluorescence was read on a FLUOstar OPTIMA plate reader (BMG Labtech, Germany), at an excitation wavelength of 544 nm and an emission wavelength of 620 nm. The EC50 values were determined by the GraphPad Prism 8.0 software using an equation for a sigmoid curve with variable slope. Pentamidine was used as positive control, and every experiment was independently performed at least 3 times independently.

[3] = test system: promastigotes of Cas9^ΔNT1; assay: Resazurin-based assay on Cas9^ΔNT1 promastigotes; assay type: cell-based, Leishmania mexicana
Procedure: as §3, §4

[4] = H9c2, 24 h, read-out: H9C2 IC50 µM
[5] = H9c2, 168 h, read-out: Cardiotoxic profile IC50 (µM) 2D
[6] = Rattus norvegicus, H9c2, 168 h, read-out: Cardiotoxic profile IC50 (µM) 3D, 3D H9C2, seven days of compound incubation
[7] = Leishmania mexicana, read-out: Cas9 EC50 (μM), promastigotes, resazurin-based assay, highest concentration 100 µM
[8] = Leishmania mexicana, read-out: Cas9^ΔNT1 EC50 (μM), promastigotes, resazurin-based assay, highest concentration 100 µM
[9] = read-out: Cardiotoxic profile IC50 (µM) 3D, 3D H9C2, seven days of compound incubation

Structure (SMILES)	IC50 (L929 cells)	EC50 [1]	EC90 [1]	IC50 (H9C2 2D cultures; [4])	IC50 (H9C2 2D cultures; [5])	IC50 (H9C2 3D cultures; [6])	EC50 [2, 7]	EC50 [3, 8]	IC50 (H9C2 3D cultures; [9])	EC50 ([2]; read-out: Cas9 EC50, promastigotes, resazurin-based assay, highest concentration 100 µM)	EC50 ([3]; read-out: Cas9^ΔNT1 EC50, promastigotes, resazurin-based assay, highest concentration 100 µM)
Nc1ncnc2c1c(-c1ccc(F)c(F)c1)cn2[C@@H]1O[C@H](CO)[C@@H](O)[C@H]1O [FH11706, 7-(3,4-Difluorophenyl)tubercidin]	118 µM	17.6 µM	> 30 µM	> 300 µM	47.7 µM	> 200 µM	> 100 µM	> 100 µM			
Nc1ncnc2c1c(-c1ccc(Cl)c(F)c1)cn2[C@@H]1O[C@H](CO)[C@@H](O)[C@H]1O [FH10714, 7-(3-fluoro,4-chlorophenyl)tubercidin]	55.8 µM	13.4 µM	> 30 µM	> 300 µM	41.8 µM	180 µM	> 100 µM	> 100 µM	181 µM		
Nc1ncnc2c1c(-c1ccc(Cl)c(Cl)c1)cn2[C@@H]1O[C@H](CO)C[C@H]1O [FH8513, 7-(3,4-dichlorophenyl)-3′-deoxytubercidin]	22.3 µM	5.9 µM	16.7 µM	268 µM	18.6 µM	199 µM	~100 µM	~100 µM	200 µM	> 100 µM	100.5 ± 0.9 µM
O=C(Cn1ccnc1[N+](=O)[O-])NCc1ccccc1 [Bz, Benznidazole, reference compound]	> 200 µM	6.9 µM	19.6 µM	> 300 µM	> 200 µM	> 200 µM					
